Results taken from article PMC11882969 (Nature Communications, 2025).
“And” between values parts separate entries of the source, which are not always exact repeats. Equal entries are not always repeated. Where two headings read alike, the source gives them in different places. Marks after values point to notes of the source that are not given here.

Legend:
CB1 (rCB1) [1] = target: T1, CB1 (rCB1) (Rattus norvegicus, UniProt P20272); experiment: Radioligand competition binding, [3H]-CP-55,940, rat brain membranes
T1 sequence (P20272 whole entry): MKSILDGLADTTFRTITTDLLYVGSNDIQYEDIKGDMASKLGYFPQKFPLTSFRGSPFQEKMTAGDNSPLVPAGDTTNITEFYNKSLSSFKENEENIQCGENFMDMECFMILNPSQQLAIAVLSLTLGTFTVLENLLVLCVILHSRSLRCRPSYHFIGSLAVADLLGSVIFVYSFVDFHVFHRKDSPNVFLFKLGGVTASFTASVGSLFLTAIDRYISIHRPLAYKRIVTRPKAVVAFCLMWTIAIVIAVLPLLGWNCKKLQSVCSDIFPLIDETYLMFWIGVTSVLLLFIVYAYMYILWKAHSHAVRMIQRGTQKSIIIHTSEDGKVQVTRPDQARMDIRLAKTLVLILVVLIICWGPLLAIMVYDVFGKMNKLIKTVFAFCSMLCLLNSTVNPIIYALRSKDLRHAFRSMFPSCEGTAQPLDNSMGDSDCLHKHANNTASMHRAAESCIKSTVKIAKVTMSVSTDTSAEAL

hCB1 [2] = target: T2, hCB1 (Homo sapiens, UniProt P21554); experiment: bioSensAll ebBRET signaling profiling, hCB1; type: cell-based; parameters: host or cells: HEK293SL cells, transient PEI transfection; settings: for Barr2+GRK2 hCB1 response: Barr2+GRK2 biosensor; for Gi1 hCB1 / GoB hCB1: single replicate values, FigS6a; for EC50: read-out: EC50 [95% CI]; for Emax: normalized to CP-55,940
T2 sequence (P21554 whole entry): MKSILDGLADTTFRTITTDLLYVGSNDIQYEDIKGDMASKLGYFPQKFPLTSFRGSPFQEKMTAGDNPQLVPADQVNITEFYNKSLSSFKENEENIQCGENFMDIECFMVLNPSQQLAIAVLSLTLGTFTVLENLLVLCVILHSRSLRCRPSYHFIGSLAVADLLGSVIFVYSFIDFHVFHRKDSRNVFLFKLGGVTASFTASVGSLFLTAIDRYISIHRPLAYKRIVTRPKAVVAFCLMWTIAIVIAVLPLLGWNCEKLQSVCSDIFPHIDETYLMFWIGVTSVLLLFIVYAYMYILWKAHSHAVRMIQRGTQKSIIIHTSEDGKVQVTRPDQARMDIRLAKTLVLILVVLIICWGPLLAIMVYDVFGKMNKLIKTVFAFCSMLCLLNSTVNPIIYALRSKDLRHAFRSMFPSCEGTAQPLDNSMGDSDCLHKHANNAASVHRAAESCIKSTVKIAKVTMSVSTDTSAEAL

CB1 (rCB1) [3] = target: T1, CB1 (rCB1); experiment: Single-point radioligand displacement screen; type: binding
hCB1 [4] = target: T2, hCB1; experiment: Lance Ultra cAMP accumulation assay, CHO cells; type: cell-based; parameters: expressed in transfected cells; settings: replicates, sheet FigureS2a;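 note: human CB1R stably expressed in CHO cells, ligands co-incubated with forskolin at room temperature, read-out is lowering of forskolin-stimulated cAMP accumulation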

**Q.** What does the source list for `Cc1c(C(=O)OCC2CSc3ccccc3O2)cnn1Cc1ccccc1` (centres unmarked) [‘7800]?
**A.** radioligand binding remaining, competition curve (Figure2e), replicate values (CB1 (rCB1) [1]; log[drug] -3.643): 10.4237 and 31.3638 and 29.0535; radioligand binding remaining, competition curve (Figure2e), replicate values (CB1 (rCB1) [1]; log[drug] -4.35655): 33.4463 and 9.669 and 4.937; radioligand binding remaining, competition curve (Figure2e), replicate values (CB1 (rCB1) [1]; log[drug] -5.07): 28.6441 and 35.1835 and 32.9974; radioligand binding remaining, competition curve (Figure2e), replicate values (CB1 (rCB1) [1]; log[drug] -5.783): 65.4237 and 64.1301 and 55.9597; radioligand binding remaining, competition curve (Figure2e), replicate values (CB1 (rCB1) [1]; log[drug] -6.496): 99.1808 and 92.7484 and 90.0088; radioligand binding remaining, competition curve (Figure2e), replicate values (CB1 (rCB1) [1]; log[drug] -7.21): 109.096 and 99.3733 and 111.043; radioligand binding remaining, competition curve (Figure2e), replicate values (CB1 (rCB1) [1]; log[drug] -7.923): 105.847 and 88.1826 and 105.215; radioligand binding remaining, competition curve (Figure2e), replicate values (CB1 (rCB1) [1]; log[drug] -8.636): 93.4322 and 101.298 and 96.7572; pKi [95% CI] (CB1 (rCB1) [1]; rCB1): 6.0 [5.78 – 6.21]; Barr2+GRK2 hCB1 response (hCB1 [2]; Log [Compound] (M) -4.22186): 3.174; Barr2+GRK2 hCB1 response (hCB1 [2]; Log [Compound] (M) -4.63927): -20.118; Barr2+GRK2 hCB1 response (hCB1 [2]; Log [Compound] (M) -5.05788): -51.0681; Barr2+GRK2 hCB1 response (hCB1 [2]; Log [Compound] (M) -5.47381): -52.3444; Barr2+GRK2 hCB1 response (hCB1 [2]; Log [Compound] (M) -5.89285): -39.9006; Barr2+GRK2 hCB1 response (hCB1 [2]; Log [Compound] (M) -6.31878): -51.3872; Barr2+GRK2 hCB1 response (hCB1 [2]; Log [Compound] (M) -6.72585): -54.5779; Barr2+GRK2 hCB1 response (hCB1 [2]; Log [Compound] (M) -7.14267): -56.4924; Barr2+GRK2 hCB1 response (hCB1 [2]; Log [Compound] (M) -7.55284): -57.7686; Barr2+GRK2 hCB1 response (hCB1 [2]; Log [Compound] (M) -8): -46.9202; Barr2+GRK2 hCB1 response (hCB1 [2]; Log [Compound] (M) -8.22186): -10.8649; Barr2+GRK2 hCB1 response (hCB1 [2]; Log [Compound] (M) -8.39794): -42.7722; Barr2+GRK2 hCB1 response (hCB1 [2]; Log [Compound] (M) -8.68787): -27.1376; Barr2+GRK2 hCB1 response (hCB1 [2]; Log [Compound] (M) -9.15521): -45.9629; Barr2+GRK2 hCB1 response (hCB1 [2]; Log [Compound] (M) -9.61989): -54.897; Barr2+GRK2 hCB1 response (hCB1 [2]; Log [Compound] (M) -10.0969): -61.2784; Barr2+GRK2 hCB1 response (hCB1 [2]; Log [Compound] (M) -10.5529): -43.4104; Barr2+GRK2 hCB1 response (hCB1 [2]; Log [Compound] (M) -11.0177): -60.6403; Barr2+GRK2 hCB1 response (hCB1 [2]; Log [Compound] (M) -11.4949): -45.3248; Barr2+GRK2 hCB1 response (hCB1 [2]; Log [Compound] (M) -11.9208): -40.5387; Barr2+GRK2 hCB1 response (hCB1 [2]; Log [Compound] (M) -12.3979): -30.0093; Barr2+GRK2 hCB1 response (hCB1 [2]; Log [Compound] (M) -12.8861): -43.4104; Barr2+GRK2 hCB1 response (hCB1 [2]; Log [Compound] (M) -13.3979): -3.845; Gi1 hCB1 (hCB1 [2]; Log [Compound] (M) -4.22186): 25.6433; GoB hCB1 (hCB1 [2]; Log [Compound] (M) -4.22186): 18.8832; Gi1 hCB1 (hCB1 [2]; Log [Compound] (M) -4.63927): 18.3425; GoB hCB1 (hCB1 [2]; Log [Compound] (M) -4.63927): 15.081; Gi1 hCB1 (hCB1 [2]; Log [Compound] (M) -5.05788): 16.1253; GoB hCB1 (hCB1 [2]; Log [Compound] (M) -5.05788): 13.1365; Gi1 hCB1 (hCB1 [2]; Log [Compound] (M) -5.47381): 12.8471; GoB hCB1 (hCB1 [2]; Log [Compound] (M) -5.47381): 14.5949; Gi1 hCB1 (hCB1 [2]; Log [Compound] (M) -5.89285): 10.5191; GoB hCB1 (hCB1 [2]; Log [Compound] (M) -5.89285): 11.0184; Gi1 hCB1 (hCB1 [2]; Log [Compound] (M) -6.31878): 9.3; GoB hCB1 (hCB1 [2]; Log [Compound] (M) -6.31878): 4.265; Gi1 hCB1 (hCB1 [2]; Log [Compound] (M) -6.72585): 1.761; GoB hCB1 (hCB1 [2]; Log [Compound] (M) -6.72585): -3.895; Gi1 hCB1 (hCB1 [2]; Log [Compound] (M) -7.14267): -0.6935; GoB hCB1 (hCB1 [2]; Log [Compound] (M) -7.14267): -5.024; Gi1 hCB1 (hCB1 [2]; Log [Compound] (M) -7.55284): -2.087; GoB hCB1 (hCB1 [2]; Log [Compound] (M) -7.55284): -3.843; Gi1 hCB1 (hCB1 [2]; Log [Compound] (M) -8): -2.0396; GoB hCB1 (hCB1 [2]; Log [Compound] (M) -8): -4.659; Gi1 hCB1 (hCB1 [2]; Log [Compound] (M) -8.22186): 3.424; GoB hCB1 (hCB1 [2]; Log [Compound] (M) -8.22186): -0.09294; Gi1 hCB1 (hCB1 [2]; Log [Compound] (M) -8.39794): -0.9469; GoB hCB1 (hCB1 [2]; Log [Compound] (M) -8.39794): -3.478; Gi1 hCB1 (hCB1 [2]; Log [Compound] (M) -8.68787): -0.4717; GoB hCB1 (hCB1 [2]; Log [Compound] (M) -8.68787): -5.371; Gi1 hCB1 (hCB1 [2]; Log [Compound] (M) -9.15521): -0.4876; GoB hCB1 (hCB1 [2]; Log [Compound] (M) -9.15521): -5.492; Gi1 hCB1 (hCB1 [2]; Log [Compound] (M) -9.61989): 0.05088; GoB hCB1 (hCB1 [2]; Log [Compound] (M) -9.61989): -8.027; Gi1 hCB1 (hCB1 [2]; Log [Compound] (M) -10.0969): -0.4084; GoB hCB1 (hCB1 [2]; Log [Compound] (M) -10.0969): -5.128; Gi1 hCB1 (hCB1 [2]; Log [Compound] (M) -10.5529): -1.2; GoB hCB1 (hCB1 [2]; Log [Compound] (M) -10.5529): -2.958; Gi1 hCB1 (hCB1 [2]; Log [Compound] (M) -11.0177): -3.528; GoB hCB1 (hCB1 [2]; Log [Compound] (M) -11.0177): -7.871; Gi1 hCB1 (hCB1 [2]; Log [Compound] (M) -11.4949): -2.61; GoB hCB1 (hCB1 [2]; Log [Compound] (M) -11.4949): -5.562; Gi1 hCB1 (hCB1 [2]; Log [Compound] (M) -11.9208): -3.829; GoB hCB1 (hCB1 [2]; Log [Compound] (M) -11.9208): -5.683; Gi1 hCB1 (hCB1 [2]; Log [Compound] (M) -12.3979): -3.75; GoB hCB1 (hCB1 [2]; Log [Compound] (M) -12.3979): -6.656; Gi1 hCB1 (hCB1 [2]; Log [Compound] (M) -12.8861): -1.469; GoB hCB1 (hCB1 [2]; Log [Compound] (M) -12.8861): -6.1521; Gi1 hCB1 (hCB1 [2]; Log [Compound] (M) -13): 0.2409; GoB hCB1 (hCB1 [2]; Log [Compound] (M) -13): -5.215; Gi1 hCB1 (hCB1 [2]; Log [Compound] (M) cell empty): -0.4876; GoB hCB1 (hCB1 [2]; Log [Compound] (M) cell empty): -5.406; pEC50 [95% CI] (hCB1 [2]; hCB1 Gi1): 5.2 [6.0]; pEC50 [95% CI] (hCB1 [2]; hCB1 GoB): 6.2 [5.9 – 6.4]; EC50 (hCB1 [2]; hCB1 Gi1): 6.79 µM; EC50 (hCB1 [2]; hCB1 GoB): 0.597 µM; Emax (hCB1 [2]; read-out: Emax [95% CI], hCB1 Gi1): 34%; Emax (hCB1 [2]; read-out: Emax [95% CI], hCB1 GoB): 21%; % 1H-CP-55,940 displacement (mean) from single point screen (CB1 (rCB1) [3]; 10 µM, 1 µM or 300 nM by cell colour (not visible)): 80.92%; rep1_displacement (CB1 (rCB1) [3]; Figure 1c source data, replicate 1): 81.9; rep2_displacement (CB1 (rCB1) [3]; Figure 1c source data, replicate 2): 79.7; rep3_displacement (CB1 (rCB1) [3]; Figure 1c source data, replicate 3): 81.1; cAMP assay signal, concentration-response point (hCB1 [4]; compound 0.01 nM): 0.002674 and 0.00241 and 0.002252; cAMP assay signal, concentration-response point (hCB1 [4]; compound 0.1 nM): 0.00346* and 0.001953 and 0.002364; cAMP assay signal, concentration-response point (hCB1 [4]; compound 1 nM): 0.002571 and 0.002123 and 0.001894; cAMP assay signal, concentration-response point (hCB1 [4]; compound 10 nM): 0.002732 and 0.002198 and 0.002584; cAMP assay signal, concentration-response point (hCB1 [4]; compound 100 nM): 0.002212 and 0.002457 and 0.002193; cAMP assay signal, concentration-response point (hCB1 [4]; compound 1000 nM): 0.002381 (2×) and 0.002128; cAMP assay signal, concentration-response point (hCB1 [4]; compound 10000 nM): 0.002 and 0.002342 and 0.001808; cAMP assay signal, concentration-response point (hCB1 [4]; compound 100000 nM): 0.001289 and 0.001131 and 0.00137
